Consider one compound from paper PMC8282008, “Brigatinib causes tumor shrinkage in both NF2-deficient meningioma and schwannoma through inhibition of multiple tyrosine kinases but not ALK” (PLoS ONE, 2021).

As usually defined, the IC50 is the concentration that inhibits the measured activity by half. Lower therefore signals greater potency.

Each structure is given as a SMILES string.

What all share (format): cell-based
The target in experiment [1] is T1, FAK1 (PTK2, focal adhesion kinase 1) (Homo sapiens, UniProt Q05397).
T1 construct: NanoLuc fusion (Promega NV1921)
T1 sequence (Q05397 2-1052): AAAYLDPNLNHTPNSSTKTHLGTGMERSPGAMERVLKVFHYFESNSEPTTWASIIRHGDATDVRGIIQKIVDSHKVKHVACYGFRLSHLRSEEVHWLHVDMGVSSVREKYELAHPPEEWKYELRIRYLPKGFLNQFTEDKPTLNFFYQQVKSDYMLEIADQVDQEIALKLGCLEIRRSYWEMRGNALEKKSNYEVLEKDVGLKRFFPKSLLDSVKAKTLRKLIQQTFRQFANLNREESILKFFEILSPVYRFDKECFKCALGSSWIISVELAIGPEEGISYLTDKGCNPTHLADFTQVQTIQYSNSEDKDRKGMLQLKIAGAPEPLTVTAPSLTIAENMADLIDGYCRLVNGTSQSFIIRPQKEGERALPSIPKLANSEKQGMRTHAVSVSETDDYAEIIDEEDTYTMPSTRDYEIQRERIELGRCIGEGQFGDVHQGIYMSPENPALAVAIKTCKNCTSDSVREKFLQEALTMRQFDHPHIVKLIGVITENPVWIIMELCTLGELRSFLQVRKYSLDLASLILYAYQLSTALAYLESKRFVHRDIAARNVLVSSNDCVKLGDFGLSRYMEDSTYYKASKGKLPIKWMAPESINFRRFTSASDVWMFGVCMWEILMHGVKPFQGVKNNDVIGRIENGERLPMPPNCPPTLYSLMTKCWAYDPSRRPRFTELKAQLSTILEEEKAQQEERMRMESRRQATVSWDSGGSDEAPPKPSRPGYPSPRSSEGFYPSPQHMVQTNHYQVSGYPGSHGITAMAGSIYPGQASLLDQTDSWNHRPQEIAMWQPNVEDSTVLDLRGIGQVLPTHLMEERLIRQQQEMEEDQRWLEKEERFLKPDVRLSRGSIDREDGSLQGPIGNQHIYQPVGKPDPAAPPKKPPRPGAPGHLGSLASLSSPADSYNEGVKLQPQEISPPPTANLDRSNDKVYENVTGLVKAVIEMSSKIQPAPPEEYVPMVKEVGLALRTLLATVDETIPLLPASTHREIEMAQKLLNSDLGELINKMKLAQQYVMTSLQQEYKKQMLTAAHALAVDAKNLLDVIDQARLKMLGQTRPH
Description: NanoBRET TE intracellular kinase assay with K-10 tracer in HEK293T cells.

Experiment [2] deals with T2, TNK2 (ACK1, Activated Cdc42-associated kinase) (Homo sapiens, UniProt Q07912).
T2 construct: NanoLuc fusion (Promega NV4451)
T2 sequence (Q07912 whole entry, the tested form may be a part): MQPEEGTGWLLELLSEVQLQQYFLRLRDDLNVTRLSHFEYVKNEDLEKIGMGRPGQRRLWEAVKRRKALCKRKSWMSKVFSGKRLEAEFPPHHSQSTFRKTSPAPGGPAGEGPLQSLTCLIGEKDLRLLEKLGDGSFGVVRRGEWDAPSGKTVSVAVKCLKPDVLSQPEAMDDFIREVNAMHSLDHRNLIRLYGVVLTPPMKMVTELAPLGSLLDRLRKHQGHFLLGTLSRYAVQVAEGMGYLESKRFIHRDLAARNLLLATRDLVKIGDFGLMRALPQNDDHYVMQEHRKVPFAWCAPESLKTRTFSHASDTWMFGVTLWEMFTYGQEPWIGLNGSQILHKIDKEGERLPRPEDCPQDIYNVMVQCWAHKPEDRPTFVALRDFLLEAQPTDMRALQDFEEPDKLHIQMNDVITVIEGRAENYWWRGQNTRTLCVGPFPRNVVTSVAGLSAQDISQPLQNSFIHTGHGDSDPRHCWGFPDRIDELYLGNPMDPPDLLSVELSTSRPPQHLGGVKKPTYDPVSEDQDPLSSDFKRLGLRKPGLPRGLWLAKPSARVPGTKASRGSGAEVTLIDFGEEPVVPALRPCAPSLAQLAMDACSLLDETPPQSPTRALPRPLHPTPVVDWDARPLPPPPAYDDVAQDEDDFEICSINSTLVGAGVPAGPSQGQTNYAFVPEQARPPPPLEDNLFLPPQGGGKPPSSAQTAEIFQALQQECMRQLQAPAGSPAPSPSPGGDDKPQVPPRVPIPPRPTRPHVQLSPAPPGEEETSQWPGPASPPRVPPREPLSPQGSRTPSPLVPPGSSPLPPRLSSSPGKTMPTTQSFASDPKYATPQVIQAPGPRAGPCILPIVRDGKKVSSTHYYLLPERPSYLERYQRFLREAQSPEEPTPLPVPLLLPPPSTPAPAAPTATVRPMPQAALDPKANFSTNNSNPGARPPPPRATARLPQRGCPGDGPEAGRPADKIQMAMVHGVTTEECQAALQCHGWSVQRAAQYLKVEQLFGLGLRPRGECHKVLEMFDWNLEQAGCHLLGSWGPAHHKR
Described as above.

Experiment [3] deals with FAK2 (PTK2B) (Homo sapiens, UniProt Q14289). Description: MIB/MS kinome profiling, HS01/HS11 Schwann cells, […] (text: lysate treatment; legend: cells treated […] h).
FAK2 (PTK2B), sequence (Q14289 whole entry): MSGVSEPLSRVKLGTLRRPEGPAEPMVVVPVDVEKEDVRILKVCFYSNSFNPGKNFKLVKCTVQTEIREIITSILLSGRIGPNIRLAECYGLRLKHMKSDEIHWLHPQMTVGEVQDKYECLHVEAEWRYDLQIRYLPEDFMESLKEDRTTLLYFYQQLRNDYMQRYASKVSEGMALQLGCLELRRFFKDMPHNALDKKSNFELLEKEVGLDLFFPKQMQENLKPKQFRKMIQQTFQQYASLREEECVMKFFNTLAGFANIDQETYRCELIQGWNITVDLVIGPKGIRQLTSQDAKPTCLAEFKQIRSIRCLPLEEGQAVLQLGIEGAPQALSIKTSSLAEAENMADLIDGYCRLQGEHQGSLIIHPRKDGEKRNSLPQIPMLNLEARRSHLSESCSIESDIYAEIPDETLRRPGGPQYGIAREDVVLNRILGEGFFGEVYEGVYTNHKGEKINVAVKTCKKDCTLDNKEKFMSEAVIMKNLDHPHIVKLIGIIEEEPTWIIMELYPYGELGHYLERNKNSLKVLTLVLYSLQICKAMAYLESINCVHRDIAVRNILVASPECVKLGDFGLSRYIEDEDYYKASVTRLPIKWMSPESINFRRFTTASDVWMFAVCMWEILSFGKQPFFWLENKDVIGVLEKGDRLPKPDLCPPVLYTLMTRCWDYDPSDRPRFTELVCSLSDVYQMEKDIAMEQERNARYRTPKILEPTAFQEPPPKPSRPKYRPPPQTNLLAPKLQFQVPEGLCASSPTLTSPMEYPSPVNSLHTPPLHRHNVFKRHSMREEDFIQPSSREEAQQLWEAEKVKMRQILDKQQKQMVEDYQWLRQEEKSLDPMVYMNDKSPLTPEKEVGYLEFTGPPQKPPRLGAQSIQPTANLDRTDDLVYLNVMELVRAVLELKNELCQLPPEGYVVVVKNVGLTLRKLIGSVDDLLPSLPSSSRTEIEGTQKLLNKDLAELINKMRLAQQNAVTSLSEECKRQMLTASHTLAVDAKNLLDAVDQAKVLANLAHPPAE
The target in experiment [4] is T3, FER (Fps/Fes-related kinase) (Homo sapiens, UniProt P16591).
T3 construct: NanoLuc fusion (Promega NV1331)
T3 sequence (P16591 whole entry, the tested form may be a part): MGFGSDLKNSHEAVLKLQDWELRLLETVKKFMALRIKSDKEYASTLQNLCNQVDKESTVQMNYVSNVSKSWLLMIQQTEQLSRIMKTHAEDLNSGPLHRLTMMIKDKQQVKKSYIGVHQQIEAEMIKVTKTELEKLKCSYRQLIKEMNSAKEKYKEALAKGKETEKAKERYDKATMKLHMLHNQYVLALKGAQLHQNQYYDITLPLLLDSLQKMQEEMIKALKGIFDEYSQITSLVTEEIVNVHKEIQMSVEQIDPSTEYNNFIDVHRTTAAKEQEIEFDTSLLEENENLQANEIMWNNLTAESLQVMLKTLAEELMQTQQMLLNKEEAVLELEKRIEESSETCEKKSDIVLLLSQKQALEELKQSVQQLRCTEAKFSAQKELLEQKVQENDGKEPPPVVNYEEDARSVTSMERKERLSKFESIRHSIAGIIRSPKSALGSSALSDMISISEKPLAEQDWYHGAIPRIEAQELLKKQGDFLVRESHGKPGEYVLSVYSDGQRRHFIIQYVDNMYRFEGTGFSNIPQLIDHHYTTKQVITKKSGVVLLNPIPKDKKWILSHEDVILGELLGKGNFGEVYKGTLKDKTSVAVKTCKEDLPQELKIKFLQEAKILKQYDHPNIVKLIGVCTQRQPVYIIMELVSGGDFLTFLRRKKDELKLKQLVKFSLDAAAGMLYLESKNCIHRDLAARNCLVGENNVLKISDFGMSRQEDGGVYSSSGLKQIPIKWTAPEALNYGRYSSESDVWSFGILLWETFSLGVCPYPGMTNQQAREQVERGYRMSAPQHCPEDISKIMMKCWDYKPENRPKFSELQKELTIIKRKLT
Briefly: NanoBRET TE intracellular kinase assay with K-10 tracer in HEK293T cells.

Experiment [5] deals with T4, GAK (Cyclin G-associated kinase) (Homo sapiens, UniProt O14976).
T4 construct: NanoLuc fusion (Promega NV1421)
T4 sequence (O14976 1-1311): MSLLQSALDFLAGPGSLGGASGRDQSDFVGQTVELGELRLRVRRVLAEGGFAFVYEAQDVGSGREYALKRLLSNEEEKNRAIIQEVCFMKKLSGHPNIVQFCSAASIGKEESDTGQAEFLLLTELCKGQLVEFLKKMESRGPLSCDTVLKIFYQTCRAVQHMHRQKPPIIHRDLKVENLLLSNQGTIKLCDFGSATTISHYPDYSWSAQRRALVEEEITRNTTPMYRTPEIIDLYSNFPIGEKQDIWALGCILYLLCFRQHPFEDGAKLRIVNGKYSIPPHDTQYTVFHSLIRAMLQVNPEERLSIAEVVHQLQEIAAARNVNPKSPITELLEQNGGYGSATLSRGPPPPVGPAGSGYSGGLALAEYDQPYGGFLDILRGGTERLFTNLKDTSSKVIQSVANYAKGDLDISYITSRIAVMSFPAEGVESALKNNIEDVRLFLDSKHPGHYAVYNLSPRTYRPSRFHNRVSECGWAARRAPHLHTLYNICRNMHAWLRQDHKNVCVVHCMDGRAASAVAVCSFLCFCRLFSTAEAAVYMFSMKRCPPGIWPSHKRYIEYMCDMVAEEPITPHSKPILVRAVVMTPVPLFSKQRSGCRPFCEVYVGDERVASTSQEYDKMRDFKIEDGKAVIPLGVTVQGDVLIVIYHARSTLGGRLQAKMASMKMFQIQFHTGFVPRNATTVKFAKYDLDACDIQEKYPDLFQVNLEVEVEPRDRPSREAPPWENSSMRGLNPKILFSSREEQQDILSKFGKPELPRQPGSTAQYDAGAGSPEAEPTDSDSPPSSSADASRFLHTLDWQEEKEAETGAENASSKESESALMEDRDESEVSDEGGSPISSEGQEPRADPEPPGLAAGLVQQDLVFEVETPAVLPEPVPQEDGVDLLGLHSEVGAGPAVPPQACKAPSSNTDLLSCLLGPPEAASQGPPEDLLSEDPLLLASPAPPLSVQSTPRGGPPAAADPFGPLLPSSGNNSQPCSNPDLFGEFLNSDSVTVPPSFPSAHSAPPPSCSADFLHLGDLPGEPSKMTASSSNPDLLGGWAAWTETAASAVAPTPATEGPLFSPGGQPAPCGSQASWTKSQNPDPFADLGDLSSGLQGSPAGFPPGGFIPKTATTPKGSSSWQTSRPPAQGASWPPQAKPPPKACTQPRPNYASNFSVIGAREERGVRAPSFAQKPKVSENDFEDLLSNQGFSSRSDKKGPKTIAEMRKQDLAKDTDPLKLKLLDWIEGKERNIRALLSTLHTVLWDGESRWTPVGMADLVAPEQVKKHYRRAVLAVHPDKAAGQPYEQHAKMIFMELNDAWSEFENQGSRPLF
Described as above.

Regarding `COc1cc(N2CCC(N3CCN(C)CC3)CC2)ccc1Nc1ncc(Cl)c(Nc2ccccc2P(C)(C)=O)n1` [brigatinib], the concentration for half-maximal inhibition (IC50) in experiment [1] worked out at 573 nM; in experiment [2], 350 nM; in experiment [4], 304 nM; in experiment [5] it was 155 nM. Besides, in experiment [3], the “MIB/MS kinome profiling, HS01/HS11 Schwann cells, 1 uM (text: lysate treatment;)” value is “kinases with the largest reduction in binding were FER, TNK2, FAK1 (PTK2) and FAK2 (PTK2B)”.
